Values of other authors, collected in paper PMC10017685 (Nature Communications, 2023).

System: human erythrocytes
Design: method as in DBAASP
Details: cited from earlier work

Sequence	Class (dedicated toxicity dataset used for toxicity classifier evaluation)
GRKKRRQRRRGALWKSLLKNVGKA [DBAASP_11807]	0
IAGKIAKIAGKIAKIAGKIA [DBAASP_14993]	1
IAGKIAKIAGKIAKIAGKIAK [DBAASP_14998]	0
IAKIAGKIAKIAGKIAK [DBAASP_14997]	0
IAKIAGKIAKIAGKIAKIAGKIAK [DBAASP_14999]	1
KIAGKIAKIAGKIA [DBAASP_10129]	0
KIAGKIAKIAGKIAKIAGKIA [DBAASP_691]	0

Same assay, conditions: toxicity class label 1 or 0, meaning of the labels not given; DBAASP HC50 data, human erythrocytes; ref DBAASP; cited from earlier work

Sequence	Class (dedicated toxicity dataset used for toxicity classifier evaluation)
GLWSKIKDAAKTAGKAALGFVNEMV [DBAASP_14233]	0
GLWSKIKKAAKTAGKAALGFVNKMV [DBAASP_14234]	0
GMATKAGTAFGKAAKAIIGAAL [DBAASP_5720]	0
GMATKAGTALGKVAKAVIGAAL [DBAASP_2285]	0
GMLKRIKTLL [DBAASP_8628]	0
GMLKRIKTLM [DBAASP_8626]	0
GMMKRIKTMM [DBAASP_8621]	0
GRFKRFRKKFKKLFKKLS [DBAASP_628]	0
GVFLDALKKFAKGGMNAVLNPK [DBAASP_3156]	0
GVGKFLHSAKKFGQALASEIMKS [DBAASP_3769]	0
GVGKFLHSAKKFGQALVSEIMKS [DBAASP_3770]	0
GVLKRIKTLV [DBAASP_8624]	0
GVSKILHSAGKFGKAFLGEIMKS [DBAASP_3776]	0
GVVDILKGAAKDIAGHLASKVMNKL [DBAASP_4358]	0
GVVDILKGAAKDLAGHLATKVMNKL [DBAASP_4357]	0
GVVKRIKTVV [DBAASP_8620]	0
GVWSTILGGLKKFAKGGLDAIVNPK [DBAASP_5716]	0
GVWSTVLGGLKKFAKGGLEAIVNPK [DBAASP_3155]	0
GWASSIGSILGKFAKGGAQAFLQPK [DBAASP_5714]	0
GWGSFFKKAAHVGKHVGKAALTHYL [DBAASP_1004]	0
GWGSIFKHGRHAAKHIGHAAVNHYL [DBAASP_1420]	0
GWKDLLKGAAKALVKTVF [DBAASP_11233]	0
GWKKWFNRAKKVGKTVGGLAVDHYL [DBAASP_996]	0
GWKKWFTKGERLSQRHFA [DBAASP_1000]	0

Sequence	Class (dedicated toxicity dataset used for toxicity classifier evaluation)
GWKKWLRKGAKHLGQAAIK [DBAASP_1434]	0
GWKKWLRKGAKHLGQAAIKGLAS [DBAASP_1435]	0
GWKSVFRKAKKVGKTVGGLALDHYL [DBAASP_995]	0
GWLDVAKKIGKAAFNVAKNFI [DBAASP_7670]	1
GWLDVAKKIGKAAFNVAKNFL [DBAASP_10137]	0
GWLDVAKKKGKAAFNVAKNFI [DBAASP_7674]	0
GWLPTFGKILRKAMQLGPKLIQPI [DBAASP_5715]	0
GWRTLLKKAEVKTVGKLALKHYL [DBAASP_1409]	0
HFKGTLVNLAKKIL [DBAASP_5016]	0
HFLGKLVNLAKKIL [DBAASP_5018]	0
HFLGTKVNLAKKIL [DBAASP_5020]	0
HFLGTLKNLAKKIL [DBAASP_5019]	0
HFLGTLVKLAKKIL [DBAASP_5021]	0
HFLGTLVNKAKKIL [DBAASP_5023]	0
HFLGTLVNLAKKIK [DBAASP_5026]	0
HFLGTLVNLAKKKL [DBAASP_5025]	0
HFLGTLVNLKKKIL [DBAASP_5024]	0
HFLKTLVNLAKKIL [DBAASP_5017]	0
HKLGTLVNLAKKIL [DBAASP_5015]	0
HWRRFWHR [DBAASP_12822]	0
IAKIAGKIAKIAGKIA [DBAASP_14991]	0
IAKIAGKIAKIAGKIAKIAGKIA [DBAASP_14994]	1
IFGAILPLALGALKNLIK [DBAASP_3892]	1
IFGAIWPLALGALKNLIK [DBAASP_9405]	1

Sequence	Class (dedicated toxicity dataset used for toxicity classifier evaluation)
IIKKIIKKIIKK [DBAASP_13883]	0
IIKKIIKKIIKKI [DBAASP_13881]	0
IKKIIKKI [DBAASP_10843]	0
IKKILSKIKKLL [DBAASP_10745]	0
IKKILSKIKKLLK [DBAASP_7154]	0
IKKIVSKIKKLL [DBAASP_7244]	0
IKKIVSKIKKLLK [DBAASP_7245]	0
IKKIVSKIKKVLK [DBAASP_7246]	0
IKKWWSKIKKLLK [DBAASP_7156]	0
IKNAKVCVYAVCVSHK [DBAASP_12238]	0
IKWKKLLRAAKRIL [DBAASP_2253]	0
ILGAILPLVSGLLSNKL [DBAASP_4393]	0
ILGKLLKTAAGLLSNL [DBAASP_4361]	1
ILGKLLKTAAKLLSNL [DBAASP_4365]	0
ILGKLLSTAAGLLKNL [DBAASP_4363]	0
ILGKLLSTAAGLLSKL [DBAASP_4364]	0
ILGKLLSTAAKLLSKL [DBAASP_4366]	1
ILGKLLSTAAKLLSNL [DBAASP_4362]	1
ILKKLLSTAAGLLSNL [DBAASP_4360]	0
ILPFKFPFFPFRR [DBAASP_4761]	0
ILPILGNLLNGLL [DBAASP_3402]	0
ILPILGNLLNSLL [DBAASP_3403]	0
ILPILSLIGGLL [DBAASP_3346]	0
ILPIRSLIKKLL [DBAASP_5721]	0

Sequence	Class (dedicated toxicity dataset used for toxicity classifier evaluation)
ILPWKWPWWPWRR [DBAASP_491]	0
ILPYKYPYYPYRR [DBAASP_4763]	0
INWIKIGKKIIASL [DBAASP_18234]	0
IPPFIKKVLTTVF [DBAASP_3483]	0
ITEVITILLNRLTDRLEK [DBAASP_13425]	0
ITKQITKQLNRQTKIQSK [DBAASP_13427]	0
KALWKTMLKKLGTMAL [DBAASP_10105]	0
KFKKLFKKLSPVFKRIVQRIKDFLR [DBAASP_13190]	0
KFKKVIWKSFL [DBAASP_13719]	0
KFLGTLVNLAKKIL [DBAASP_5014]	0
KGIVGMLGKLF [DBAASP_5480]	0
KIAKGALKALKIAKGALKAL [DBAASP_11229]	0
KIAKGALKALKIAKVALKAL [DBAASP_11228]	1
KIAKIAGKIAKIAGKIA [DBAASP_14992]	0
KIAKIAGKIAKIAGKIAKIAGKIA [DBAASP_14995]	1
KIAKVALKALKIAKGALKAL [DBAASP_9754]	0
KIAKVALKALKIAKVALKAL [DBAASP_9753]	0
KIALKALKALKALGKALKAL [DBAASP_11232]	1
KIFGAIWPLALGALKNLIK [DBAASP_7010]	1
KIGKALGKALKALGKALGKA [DBAASP_11230]	1
KIKWILKYWKWS [DBAASP_10700]	0
